Reference: patent publication US11554171B2, “Compounds and methods for the targeted degradation of bromodomain-containing proteins” (Arvinas Operations, Inc., priority 2015, dated 2023)

Tested on: c-myc in 22RV-1 cells
Assay: Human c-myc ELISA assay
Assay type: cell-based
Conditions: Homo sapiens; for Emax: 22Rv1, 18 h, read-out: Degradation of BRD4: Maximum inhibition (%) c-Myc ELISA in 22RV1 cells; for DC50: 22Rv1, read-out: Degradation of BRD4: DC50 (uM) c-Myc ELISA in 22RV1 cells
Outline: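 22RV-1 cells treated 18 h with 8-point 1:3 compound dilutions (final top 300 nM or 1 μM, 0.1% DMSO). Cells lysed in RIPA buffer with protease/phosphatase inhibitors, and c-myc protein in cleared lysate quantified by ELISA against a standard curve. DC50 reported for c-myc suppression.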

| SMILES | Emax [%] | DC50 [µM] |
| --- | --- | --- |
| Cc1ncsc1-c1ccc([C@H](C)NC(=O)[C@@H]2C[C@@H](O)CN2C(=O)[C@@H](NC(=O)CN2CCC(N3C[C@@H]4C[C@H]3CN4C(=O)C[C@@H]3N=C(c4ccc(Cl)cc4)c4c(sc(C)c4C)-n4c(C)nnc43)CC2)C(C)(C)C)cc1 [Example 368, (2S,4R)-1-[(2S)-2-(2-{4-[(1S,4S)-5-{2-[(9S)-7-(4-chlorophenyl)-4,5,13-trimethyl-3-thia-1,8,11,12-tetraazatricyclo[8.3.0.0^2,6]trideca-2(6),4,7,10,12-pentaen-9-yl]acetyl}-2,5-diazabicyclo[2.2.1]heptan-2-yl]piperidin-1-yl}acetamido)-3,3-dimethylbutanoyl]-4-hydroxy-N-[(1S)-1-[4-(4-methyl-1,3-thiazol-5-yl)phenyl]ethyl]pyrrolidine-2-carboxamide] | 100 | 0.01 to 0.1 |
| Cc1ncsc1-c1ccc(CNC(=O)[C@@H]2C[C@@H](O)CN2C(=O)[C@H](C(C)C)n2cc(-c3cccc(O[C@H]4C[C@H](NC(=O)C[C@@H]5N=C(c6ccc(Cl)cc6)c6c(sc(C)c6C)-n6c(C)nnc65)C4)c3)cn2)cc1 [Example 217] | 91.9 | 0.01 to 0.1 |
| Cc1ncsc1-c1ccc([C@H](C)NC(=O)[C@@H]2C[C@@H](O)CN2C(=O)[C@@H](NC(=O)CCc2cc(F)cc(OCCNC(=O)C[C@@H]3N=C(c4ccc(Cl)cc4)c4c(sc(C)c4C)-n4c(C)nnc43)c2)C(C)(C)C)cc1 [Example 150, (2S,4R)-1-[(2S)-2-{3-[3-(2-{2-[(9S)-7-(4-chlorophenyl)-4,5,13-trimethyl-3-thia-1,8,11,12-tetraazatricyclo[8.3.0.0^2,^6]trideca-2(6),4,7,10,12-pentaen-9-yl]acetamido}ethoxy)-5-fluorophenyl]propanamido}-3,3-dimethylbutanoyl]-4-hydroxy-N-[(1S)-1-[4-(4-methyl-1,3-thiazol-5-yl)phenyl]ethyl]pyrrolidine-2-carboxamide] | 93.9 | < 0.01 |
| Cc1ncsc1-c1ccc(CNC(=O)[C@@H]2C[C@@H](O)CN2C(=O)[C@@H](NC(=O)COCCn2cc(-c3ccc([C@@H](C)NC(=O)C[C@@H]4N=C(c5ccc(Cl)cc5)c5c(sc(C)c5C)-n5c(C)nnc54)cc3)cn2)C(C)(C)C)cc1 [Example 78] | 86.7 | 0.1 to 1 |
| Cc1ncsc1-c1ccc(CNC(=O)[C@@H]2C[C@@H](O)CN2C(=O)[C@@H](NC(=O)COCCCOCCCOc2ccc(NC(=O)C[C@@H]3N=C(c4ccccc4)c4c(sc(C)c4C)-n4c(C)nnc43)cc2)C(C)(C)C)cc1 [Example 55, (2S,4R)-1-[(2S)-3,3-dimethyl-2-(2-{3-[3-(4-{2-[(9S)-4,5,13-trimethyl-7-phenyl-3-thia-1,8,11,12-tetraazatricyclo[8.3.0.0^2,^6]trideca-2(6),4,7,10,12-pentaen-9-yl]acetamido}phenoxy)propoxy]propoxy}acetamido)butanoyl]-4-hydroxy-N-{[4-(4-methyl-1,3-thiazol-5-yl)phenyl]methyl}pyrrolidine-2-carboxamide] | 100 | < 0.01 |
| Cc1ncsc1-c1ccc([C@H](C)NC(=O)[C@@H]2C[C@@H](O)CN2C(=O)[C@H](C(C)C)n2cc(-c3cnc(O[C@H]4C[C@H](NC(=O)C[C@@H]5N=C(c6ccc(Cl)cc6)c6c(sc(C)c6C)-n6c(C)nnc65)C4)cn3)cn2)cc1 [Example 284] | 93.4 | < 0.01 |
| Cc1ncsc1-c1ccc([C@H](C)NC(=O)[C@@H]2C[C@@H](O)CN2C(=O)[C@@H](NC(=O)[C@H](C)OCCCOCCNC(=O)C[C@@H]2N=C(c3ccc(Cl)cc3)c3c(sc(C)c3C)-n3c(C)nnc32)C(C)(C)C)cc1 [Example 153] | 92 | < 0.01 |
| Cc1ncsc1-c1ccc([C@H](C)NC(=O)[C@@H]2C[C@@H](O)CN2C(=O)[C@@H](C(C)C)n2cc(-c3ccnc(N4CCN(C(=O)C[C@@H]5N=C(c6ccc(Cl)cc6)c6c(sc(C)c6C)-n6c(C)nnc65)CC4)c3)cn2)cc1 [Example 323] | 43 | > 1 |
| Cc1ncsc1-c1ccc(CNC(=O)[C@@H]2C[C@@H](O)CN2C(=O)[C@@H](NC(=O)COCCCOCCCCCNC(=O)C[C@@H]2N=C(c3ccc(Cl)cc3)c3c(sc(C)c3C)-n3c(C)nnc32)C(C)(C)C)cc1 [Example 50, (2S,4R)-1-[(2S)-2-(2-{3-[(5-{2-[(9S)-7-(4-chlorophenyl)-4,5,13-trimethyl-3-thia-1,8,11,12-tetraazatricyclo[8.3.0.0^2,^6]trideca-2(6),4,7, 10,12-pentaen-9-yl]acetamido}pentyl)oxy]propoxy}acetamido)-3,3-dimethylbutanoyl]-4-hydroxy-N-{[4-(4-methyl-1,3-thiazol-5-yl)phenyl]methyl}pyrrolidine-2-carboxamide] | 98 | < 0.01 |
| Cc1ncsc1-c1ccc(CNC(=O)[C@@H]2C[C@@H](O)CN2C(=O)[C@H](c2cc(OCCN3CC[C@@H](NC(=O)C[C@@H]4N=C(c5ccc(Cl)cc5)c5c(sc(C)c5C)-n5c(C)nnc54)C3)no2)C(C)C)cc1 (single isomer, unassigned) [Example 311] | 43.6 | > 1 |
| Cc1ncsc1-c1ccc([C@H](C)NC(=O)[C@@H]2C[C@@H](O)CN2C(=O)[C@H](n2cc(-c3ccnc(O[C@H]4C[C@H](NC(=O)C[C@@H]5N=C(c6ccc(Cl)cc6)c6c(sc(C)c6C)-n6c(C)nnc65)C4)c3)cn2)C(C)(C)C)cc1 [Example 233] | 26 | > 1 |
| Cc1ncsc1-c1ccc(CNC(=O)[C@@H]2C[C@@H](O)CN2C(=O)[C@@H](C(C)C)n2cc(-c3cccc(O[C@H](C)CNC(=O)C[C@@H]4N=C(c5ccc(Cl)cc5)c5c(sc(C)c5C)-n5c(C)nnc54)c3)cn2)cc1 [Example 231] | 39.5 | > 1 |
| Cc1ncsc1-c1ccc(CNC(=O)[C@@H]2C[C@@H](O)CN2C(=O)[C@@H](NC(=O)COCCCOCCNC(=O)C[C@@H]2N=C(c3ccc(Cl)cc3)c3c(sc(C)c3C)-n3c(C)nnc32)C(C)(C)C)cc1 [Example 49, (2S,4R)-1-[(2S)-2-{2-[3-(2-{2-[(9S)-7-(4-chlorophenyl)-4,5,13-trimethyl-3-thia-1,8,11,12-tetraazatricyclo[8.3.0.0^2,^6]trdeca-2(6),4,7,10,12-pentaen-9-yl]acetamido}ethoxy)propoxy]acetamido}-3,3-dimethylbutanoyl]-4-hydroxy-N-{[4-(4-methyl-1,3-thiazol-5-yl)phenyl]methyl}pyrrolidine-2-carboxamide] | 99 | < 0.01 |
| Cc1ncsc1-c1ccc(CNC(=O)[C@@H]2C[C@@H](O)CN2C(=O)[C@@H](NC(=O)COCCCOCCCOc2ccc(NC(=O)C[C@@H]3N=C(c4ccc(Cl)cc4)c4c(sc(C)c4C)-n4c(C)nnc43)cc2F)C(C)(C)C)cc1 [Example 19] | 92 | 0.01 to 0.1 |
| Cc1ncsc1-c1ccc([C@H](C)NC(=O)[C@@H]2C[C@@H](O)CN2C(=O)[C@H](C(C)C)n2cc(-c3cc(O[C@H]4C[C@@H](NC(=O)C[C@@H]5N=C(c6ccc(Cl)cc6)c6c(sc(C)c6C)-n6c(C)nnc65)C4)ccn3)cn2)cc1 [Example 302] | 92 | 0.01 to 0.1 |
| Cc1ncsc1-c1ccc(CNC(=O)[C@@H]2C[C@@H](O)CN2C(=O)[C@@H](c2cc(OCCN3CCC(NC(=O)C[C@@H]4N=C(c5ccc(Cl)cc5)c5c(sc(C)c5C)-n5c(C)nnc54)CC3)no2)C(C)C)cc1 [Example 314] | 87 | < 0.01 |
| Cc1ncsc1-c1ccc(CNC(=O)[C@@H]2C[C@@H](O)CN2C(=O)[C@@H](NC(=O)COCCc2cccc(CNC(=O)C[C@@H]3N=C(c4ccc(Cl)cc4)c4c(sc(C)c4C)-n4c(C)nnc43)c2)C(C)(C)C)cc1 [Example 69] | 93.4 | 0.01 to 0.1 |
| Cc1ncsc1-c1ccc(CNC(=O)[C@@H]2C[C@@H](O)CN2C(=O)[C@@H](NC(=O)COCCCCOCCCOc2ccc(NC(=O)C[C@@H]3N=C(c4ccc(Cl)cc4)c4c(sc(C)c4C)-n4c(C)nnc43)cc2)C(C)(C)C)cc1 [Example 15] | 100 | 0.01 to 0.1 |
| Cc1ncsc1-c1ccc([C@H](C)NC(=O)[C@@H]2C[C@@H](O)CN2C(=O)[C@@H](NC(=O)/C=C/c2cc(O[C@@H](C)CNC(=O)C[C@@H]3N=C(c4ccc(Cl)cc4)c4c(sc(C)c4C)-n4c(C)nnc43)ccc2F)C(C)(C)C)cc1 [Example 196] | 94.5 | < 0.01 |
| Cc1ncsc1-c1ccc(CNC(=O)[C@@H]2C[C@@H](O)CN2C(=O)[C@@H](NC(=O)COCCCCNC(=O)C[C@@H]2N=C(c3ccc(Cl)cc3)c3c(sc(C)c3C)-n3c(C)nnc32)C(C)(C)C)cc1 [Example 45, (2S,4R)-1-[(2S)-2-[2-(4-{2-[(9S)-7-(4-chlorophenyl)-4,5,13-trimethyl-3-thia-1,8,11,12-tetraazatricyclo[8.3.0.0^2,^6]trideca-2(6),4,7,10,12-pentaen-9-yl]acetamido}butoxy)acetamido]-3,3-dimethylbutanoyl]-4-hydroxy-N-{[4-(4-methyl-1,3-thiazol-5-yl)phenyl]methyl}pyrrolidine-2-carboxamide] | 100 | 0.1 to 1 |
| Cc1ncsc1-c1ccc(CNC(=O)[C@@H]2C[C@@H](O)CN2C(=O)[C@H](C(C)C)N2Cc3ccccc3C2=O)c(OCCOCCOCCOCCOCCNC(=O)C[C@@H]2N=C(c3ccc(Cl)cc3)c3c(sc(C)c3C)-n3c(C)nnc32)c1 [Example 2] | 41 | > 1 |
| Cc1ncsc1-c1ccc([C@H](C)NC(=O)[C@@H]2C[C@@H](O)CN2C(=O)[C@@H](NC(=O)Cc2ccc(-c3cn(CCNC(=O)C[C@@H]4N=C(c5ccc(Cl)cc5)c5c(sc(C)c5C)-n5c(C)nnc54)cn3)cc2)C(C)(C)C)cc1 [Example 337] | 96.4 | < 0.01 |
| Cc1ncsc1-c1ccc([C@H](C)NC(=O)[C@@H]2C[C@@H](O)CN2C(=O)[C@H](C(C)C)n2cc(-c3ccnc(N4CC(NC(=O)C[C@@H]5N=C(c6ccc(Cl)cc6)c6c(sc(C)c6C)-n6c(C)nnc65)C4)c3)cn2)cc1 [Example 248] | 95.9 | 0.01 to 0.1 |
